# Assay results: patent publication US8410302B2, “Methoxyimino compounds and fungicide composition comprising same” (Kyung Nong Corporation, priority 2007, dated 2013)
# What was measured:
# [1] = system: Pyricularia oryzae Carvara KA301; assay: whole plant or invertebrate; type: in vivo; conditions: for pest or weed control at 2 ppm / pest or weed control at 10 ppm / pest or weed control at 50 ppm / pest or weed control at 100 ppm: Pyricularia oryzae, read-out: RCB control value (C.V.); for RCB control value (C.V.): rice blast
# [2] = system: Botrytis cinerae; assay: Fungicidal activity against cucumber gray mold rot (CGM) disease, control value; type: in vivo; conditions: for pest or weed control at 100 ppm / CGM control value (C.V.): 100 ppm; for CGM control value (C.V.): cucumber gray mold rot
# Protocol: Botrytis cinerae, which was isolated from cucumber infected thereby, was inoculated on a potato agar medium (PEC) and cultured under a 12L/12D cycle at 25° C. for 15 days to form spore. The spores were scraped, filtered through a gauze and then suspended in Potato Dextrose broth at a concentration of 1×10^6 spore/ml. The spore suspension was sprayed on a cucumber plant having one leaf. The cucumber plant was held in a humidified room at 20° C. for 3 days. L.A. on a leaf was measured to calculate a C.V.
# [3] = system: Phytophthora infestans; assay: whole plant or invertebrate; type: in vivo; conditions: for pest or weed control at 2 ppm / pest or weed control at 10 ppm / pest or weed control at 50 ppm / pest or weed control at 100 ppm: Phytophthora infestans, in Solanum lycopersicum, read-out: TLB control value (C.V.); for TLB control value (C.V.): tomato late blight
# [4] = system: Puccinia recondita; assay: Fungicidal activity against wheat leaf rust (WLR) disease, control value; type: in vivo; conditions: for pest or weed control at 2 ppm / pest or weed control at 10 ppm / pest or weed control at 50 ppm / pest or weed control at 100 ppm: Puccinia recondita, read-out: WLR control value (C.V.); for WLR control value (C.V.): wheat leaf rust
# [5] = system: Erysiphae graminis; assay: Fungicidal activity against barley powdery mildew (BPM) disease, control value; type: in vivo; conditions: for pest or weed control at 2 ppm / pest or weed control at 10 ppm / pest or weed control at 50 ppm / pest or weed control at 100 ppm: 168 h, read-out: BPM control value (C.V.); for BPM control value (C.V.): barley powdery mildew
# [6] = system: Rhizoctonia solani AG-1; assay: Fungicidal activity against rice sheath blight (RSB) disease, control value; conditions: for pest or weed control at 2 ppm / pest or weed control at 10 ppm / pest or weed control at 50 ppm / pest or weed control at 100 ppm: Rhizoctonia solani, AG1, in Oryza sativa, read-out: RSB control value (C.V.); for RSB control value (C.V.): rice sheath blight
# [7] = Botrytis, read-out: CGM control value (C.V.)
SMILES,pest or weed control at 2 ppm [1],pest or weed control at 10 ppm [1],pest or weed control at 50 ppm [1],pest or weed control at 100 ppm [1],"pest or weed control at 100 ppm [2, 7]",pest or weed control at 2 ppm [3],pest or weed control at 10 ppm [3],pest or weed control at 50 ppm [3],pest or weed control at 100 ppm [3],pest or weed control at 2 ppm [4],pest or weed control at 10 ppm [4],pest or weed control at 50 ppm ([4]; 50 ppm),pest or weed control at 100 ppm ([4]; 100 ppm),pest or weed control at 2 ppm ([5]; 2 ppm),pest or weed control at 10 ppm ([5]; 10 ppm),pest or weed control at 50 ppm ([5]; 50 ppm),pest or weed control at 100 ppm ([5]; 100 ppm),pest or weed control at 2 ppm [6],pest or weed control at 10 ppm [6],pest or weed control at 50 ppm [6],further results
"CO/N=C(/C(=O)OC)c1ccccc1COc1c(OC)ccc(C=C(Br)Br)c1Br [Example 75, methyl-(E)-2-(2-((2-bromo-3-(2,2-dibromovinyl)-6-methoxyphenoxy)methyl)phenyl)-2-methoxyiminoacetate]",30%,90%,100%,100%,40%,70%,90%,98%,100%,95%,100%,100%,100%,92%,98%,100%,100%,65%,98%,100%,pest or weed control at 100 ppm [6]: 100%
"CO/N=C(/C(=O)OC)c1ccccc1CON=C(C)c1ccc(C=C(F)Cl)cc1 [Example 33, methyl-(E)-2-[[[[[2-[4-(2-chloro-2-fluorovinyl)phenyl](1-methyl)methylidene]amino]oxy]methyl]phenyl]-2-methoxyiminoacetate]",,,,,,,,,,,,,,,,,,,,,RCB control value (C.V.) ([1]; 50 ppm): 70%; RCB control value (C.V.) ([1]; 100 ppm): 95%; CGM control value (C.V.) [2]: 15%; TLB control value (C.V.) ([3]; 100 ppm): 60%; WLR control value (C.V.) ([4]; 50 ppm): 40%; WLR control value (C.V.) ([4]; 100 ppm): 90%; BPM control value (C.V.) ([5]; 100 ppm): 80%; RSB control value (C.V.) ([6]; 100 ppm): 67%
"CO/N=C(/C(=O)OC)c1ccccc1CON=C(C)c1cccc(C=C(Br)Br)c1 [Example 23, methyl-(E)-2-[[[[[2-[3-(2,2-dibromovinyl)phenyl](1-methyl)methylidene]amino]oxy]methyl]phenyl]-2-methoxyiminoacetate]",,,,,,,,,,,,,,,,,,,,,RCB control value (C.V.) ([1]; 2 ppm): 90%; RCB control value (C.V.) ([1]; 10 ppm): 97%; RCB control value (C.V.) ([1]; 50 ppm): 100%; RCB control value (C.V.) ([1]; 100 ppm): 100%; CGM control value (C.V.) [2]: 34%; TLB control value (C.V.) ([3]; 50 ppm): 55%; TLB control value (C.V.) ([3]; 100 ppm): 93%; WLR control value (C.V.) ([4]; 100 ppm): 80%; BPM control value (C.V.) ([5]; 2 ppm): 20%; BPM control value (C.V.) ([5]; 10 ppm): 50%; BPM control value (C.V.) ([5]; 50 ppm): 80%; BPM control value (C.V.) ([5]; 100 ppm): 95%; RSB control value (C.V.) ([6]; 2 ppm): 98%; RSB control value (C.V.) ([6]; 10 ppm): 100%; RSB control value (C.V.) ([6]; 50 ppm): 100%; RSB control value (C.V.) ([6]; 100 ppm): 100%
"CO/N=C(/C(=O)OC)c1ccccc1COc1ccc(C=C(Cl)Cl)c(Cl)c1 [Example 57, methyl-(E)-2-(2-((3-chloro-4-(2,2-dichlorovinyl)phenoxy)methyl)phenyl)-2-methoxyiminoacetate]",90%,100%,100%,100%,75%,99%,100%,100%,100%,95%,100%,100%,100%,100%,100%,100%,100%,90%,100%,100%,"pest or weed control at 50 ppm ([2]; Botrytis, 50 ppm, read-out: CGM control value (C.V.)): 20%; pest or weed control at 100 ppm [6]: 100%"
